Test results published in patent US9057725B2, “Composition for diagnosing, treating, and preventing liver disease” (SNU R&DB Foundation, priority 2010, dated 2015).
“Also recorded” adds a separate entry of the source.

Legend:
[1] = tested on: TM4SF5 expression; assay: TM4SF5 expression mediated by conditioned medium of LX2 cells in AML12 cells with AG1478; assay type: cell-based, mouse; settings: AG1478 100 nM, 24 hours
Protocol: Particularly, one hour before the treatment of conditioned medium of LX2 cells to AML12 cells, AG1478 (100 nM) was added to the medium to inhibit EGFR kinase activity, leading to the suppression of EGFR signaling, which was then treated to AML12 cells, followed by further culture for 24 hours.

[2] = tested on: TM4SF5 expression; assay: TGFβ mediated TM4SF5 expression in Chang cells infected with Smad adenoviruses with AG1478; assay type: cell-based, human; settings: group treated with Smad2 and Smad4 adenoviruses, AG1478 1 hour before TGFβ, 24 hours
Protocol: In addition, Chang cells were infected with Smad2, Smad3, and Smad4 adenoviruses for 24 hours, followed by serum starvation for 24 hours. After serum starvation, the cells were treated with AG1478 1 hour before the treatment of TGFβ in order to inhibit EGFR signaling. After the treatment of TGFβ, the cells were further cultured for 24 more hours. Then, the protein in the cell extract was quantified, followed by Western blotting. As a result, it was confirmed that TGFβ mediated TM4SF5 expression was reduced by AG1478 in the group treated with Smad2 and Smad4 adenoviruses.

[3] = tested on: TM4SF5 expression; assay: TGFβ mediated TM4SF5 expression in AML12 cells with EGFR inhibitor, Western blotting and optical microscope; assay type: cell-based, mouse
Protocol: Particularly, AML12 cells were cultured in DMEM supplemented with 10% FBS, which were then washed with serum-free DMEM. The cells were maintained as serum-free status for 4 hours. After serum starvation, the cells were treated with DMSO (control vehicle) and AG1478 (100 nM) 30 minutes before the treatment of TGFβ (2.5 ng/ml) in order to inhibit EGFR signaling. After the treatment of TGFβ (R&D systems, Minneapolis, Minn., USA), the cells were further cultured for 24 more hours.
Western blotting was performed with antibodies against phospho-Y^1173EGFR (Santa Cruz Biotechnology, Santa Cruz, Calif.), phospho-Y^992EGFR (Cell Signaling Technology, Danvers, Mass.), phospho-Erk (Cell Signaling Technology, Danvers, Mass.), phospho-Smad2 (Cell Signaling Technology, Danvers, Mass.), phospho-Smad3 (Cell Signaling Technology, Danvers, Mass.), TM4SF5, and α-tubulin (Sigma-Aldrich) to investigate the expressions of TM4SF5 and EGFR signal transduction system related factors.
(2) AML12 cells were cultured in DMEM supplemented with 10% FBS, which were then washed with serum-free DMEM. The cells were maintained as serum-free status for 4 hours. After serum starvation, the cells were treated with various inhibitors such as PD98059 (MEK inhibitor, LC Laboratories, Woburn, Mass.), LY294002 (PI3K inhibitor), PP2, PP3 (src inhibitor, Tocris Cookson, Avonmouth, UK), Rapamycin (mTOR inhibitor), GF109203 (PKC inhibitor, Calbiochem, San Diego, Calif.), AG1478 (EGFR inhibitor, LC Laboratories, Woburn, Mass.), U0126 (ERK1/2 inhibitor, LC Laboratories, Woburn, Mass.), SP600125 (Jnk inhibitor), and Y-27632 (ROCK inhibitor, Calbiochem, San Diego, Calif.) 30 minutes before the treatment of TGFβ (2.5 ng/ml). Then, TM4SF5 expression was examined. As a result, TM4SF5 expression was reduced by AG1478 under the near death condition (the condition in which phospho-Y^397 FAK level was high) (FIG. 8).

[4] = tested on: Chang cells; assay: TM4SF5 expression and EGFR signal transduction system over treatment times of TGFβ and EGF in Chang cells; assay type: cell-based, human; settings: TGFβ (2.5 ng/ml) and EGF (50 ng/ml), 0, 0.5, 1, 2, and 24 hours
Protocol: Chang cells were cultured in DMEM supplemented with 10% FBS, which were then washed with serum-free DMEM. The cells were maintained as serum-free status for 4 hours. […] Then, TM4SF5 expression and EGFR signal transduction system were investigated.

[5] = tested on: Chang cells; assay: TM4SF5 expression and EMT induced by TGFβ in Chang cells; assay type: cell-based, human
Protocol: (§1) AML12 cells (ATCC, USA), the normal mouse hepatocytes, and Chang cells (ATCC, USA), the normal human hepatocytes, cultured in DMEM supplemented with 10% FBS were washed with serum-free DMEM, which were maintained as serum-free status for 4 hours. After serum starvation, the cells were treated with TGFβ (2.5 ng/ml), followed by further culture for 24 hours. At last, cell extracts were prepared.
Chang cells, the normal human hepatocytes, were treated with TGFβ, followed by immunoblotting. As a result, it was confirmed that TM4SF5 expression was induced. From the comparison of cellular morphology, it was also confirmed that cell-cell contact became weak, compared with the control treated with vehicle (PBS) only without TGFβ, and EMT was induced, and the expression of α-SMA, the mesenchymal cell marker, was increased (FIG. 4).
In addition, Chang cells, the normal human hepatocytes, were treated with TGFβ at different concentrations of 0, 2.5 and 5 ng/ml, followed by immunoblotting. […] EGFR signal transduction system was also activated, confirmed by using antibodies against phospho-Y^1173EGFR (Santa Cruz Biotechnology, Santa Cruz, Calif.), EGFR (Santa Cruz Biotechnology, Santa Cruz, Calif.), phospho-Erk, phospho-Smad2, phospho-Smad3 (Cell Signaling Technology, Danvers, Mass.), and α-tubulin (Sigma-Aldrich) (FIG. 5).

[6] = tested on: human TM4SF5 promoter; assay: Luciferase reporter gene assay with TM4SF5 promoter in Huh7, HepG2 and SNU16mAd cells; assay type: cell-based
Protocol: Particularly, Huh7 and HepG2 (liver cancer cell lines), and SNU16mAd (stomach cancer cell line) were transfected with pBabe-galactosidase (Choi et al., 2009, Blood 113:1845-1855) containing pGL3-human TM4SF5 promoter prepared by inserting genomic fragment of TM4SF5 upstream promoter located approximately −3 kb ahead of TM4SF5 gene in pGL3 luciferase vector (Promega), followed by harvesting 24 hours later. Then, luciferase activity of the reporter gene was measured. Infection efficiency was confirmed by measuring beta-galactosidase activity, followed by quantification after normalization. […] Unlike pGL3-TM4SF5 that was the construct harboring TM4SF5 promoter region whose transcriptional activity could be confirmed, pGL3-basic was the construct without the promoter, meaning transcription would not be activated, which was thereby used as the control (FIG. 2).

[7] = tested on: AML12 cells; assay: TM4SF5 expression and EMT induced by TGFβ in AML12 cells; assay type: cell-based, mouse
Protocol: as §1
TM4SF5 protein expression was increased in those extracts, confirmed by immunoblotting and immunofluorescence assay using antibodies against pSmad3, pSmad2 (Cell Signaling Technology, Danvers, Mass.), vimentin (Sigma-Aldrich), E-adherin (Santa Cruz Biotechnology, Santa Cruz, Calif.), and TM4SF5 (Sin-Ae Lee et al., J. Clin. Invest. 2008 April; 118(4):1354-66). The nucleotide sequence of TM4SF5 antibody was confirmed by using pGEX-5X2 vector (Amersham) comprising c-terminal of TM4SF5 (the region from the 229th nucleotide residue to the 594th nucleotide residue, digested with EcoR1). To obtain recombinant protein induced by IPTG from DH5a bacteria, PBS comprising 0.3% SDS and protease inhibitor was used. After protein extraction, antigen was extracted from electrophoresed SDS gel, followed by immunizing mice with that. After immune response was induced three times in total, serum was obtained from the mice. Immunoreactivity of the serum with recombinant protein and animal cell extract was investigated.
As a result, as shown in FIG. 3 and FIG. 5, when AML12 cells were treated with TGFβ, TM4SF5 expression was increased. In addition, EMT (epithelial-mesenchymal transition) was induced by the increases of α-SMA and vimentin and the decrease of E-cadherin. It was also confirmed by immunoblotting that the expression of E-cadherin, which is important for cell-cell contact, was reduced, but the expression of vimentin, the mesenchymal cell marker, was increased. In the meantime, according to immunofluorescence assay, the cells were placed on cover glass coated with fibronectin (10 μg/ml) to perform immunofluorescence staining, followed by treating with TGFβ. Upon completion of immunofluorescence staining with vimentin antibody, the cover glass was observed under fluorescence microscope. As a result, vimentin expression was increased, compared with the control treated with vehicle (PBS, phosphate saline buffer) only without TGFβ, and EMT was confirmed by dispersed cell pattern (FIG. 3).

[8] = Chang cells, 0, 2.5 and 5 ng/ml

Compound | TM4SF5 expression mediated by conditioned medium of LX2 cells [1] | TGFβ mediated TM4SF5 expression [2] | cell-cell contact (TGFβ mediated cell dispersion, cell morphology change) ([3]; AML12 cells, AG1478 100 nM, TGFβ 2.5 ng/ml, optical microscope) | TGFβ mediated TM4SF5 expression ([3]; AML12 cells, inhibitor 30 minutes before TGFβ (2.5 ng/ml), AG1478 100 nM, 24 hours) | TGFβ signaling Smad2 activation ([3]; suppression of EGFR activation by AG1478) | EGFR signal transduction system activation and TM4SF5 expression over time [4] | α-SMA expression ([5]; Chang cells) | EGFR signal transduction system [5, 8] | TM4SF5 protein expression at different TGFβ concentrations [5, 8] | cell-cell contact ([5]; Chang cells, compared with vehicle (PBS)) | TM4SF5 expression ([5]; Chang cells, immunoblotting) | transcriptional activity of TM4SF5 promoter region (luciferase) [6] | EMT (epithelial-mesenchymal transition) ([7]; TGFβ 2.5 ng/ml, 24 hours) | TM4SF5 expression ([7]; TGFβ 2.5 ng/ml, 24 hours) | E-cadherin expression ([7]; immunoblotting) | vimentin expression ([7]; immunoblotting)
COc1cc2ncnc(Nc3cccc(Cl)c3)c2cc1OC [AG1478] | reduced; also recorded: not increased any more | reduced | maintained; also recorded: suppressed | decreased; also recorded: reduced; also recorded: suppressed | did not affect |  |  |  |  |  |  |  |  |  |  | 
TGFβ: transforming growth factor β, a multi-functional cytokine (R&D systems) |  |  |  |  |  | induced continuously | increased | activated | increased TGFβ dose-dependently | became weak | induced | increased | induced | increased | reduced | increased
